The data set is described as follows: Solubility at 25° C. in organic solvents (Example 15). Conditions: organic solvent or mixture. The format is physicochemical.
The mark [1] stands for this setting: chlorobenzene, clorobenzene, read-out: Solubility in clorobenzene.
Where [2] appears, read: CHCl3, read-out: Solubility in CHCl3.
[3] abbreviates: DMF, read-out: Solubility in DMF.
[4] abbreviates: THF, read-out: Solubility in THF.

Each structure is given as a SMILES string. In brackets after ≈: the same amount, converted by molar mass. Like-named read-outs stand apart in the source and are kept apart here.

The solubility is the dissolved amount per volume that the medium holds.

`CC(C)(C)OC(=O)n1c2c(c3c1=Nc1ccccc1S3)Sc1ccccc1N=2` [Compound 1a]: the solubility is, setting by setting: under setting [1], 5000 to 10000 µg/mL (≈ 12.3 to 24.5 mM); under setting [2], 5000 to 10000 µg/mL (≈ 12.3 to 24.5 mM); under setting [3], 1000 to 5000 µg/mL (≈ 2.45 to 12.3 mM); under setting [4], 1000 to 5000 µg/mL (≈ 2.45 to 12.3 mM).

As for `CCCCCCCc1ccc2c(c1)N=c1c(c3c(n1C(=O)OC(C)(C)C)=Nc1cc(CCCCCCC)ccc1S3)S2` [Compound 1c], the solubility reads like this: under setting [1], > 10000 µg/mL; under setting [2], > 10000 µg/mL; under setting [3], < 1000 µg/mL; under setting [4], > 10000 µg/mL.

For `CCCCCCCCCCCCc1ccc2c(c1)N=c1c(c3c(n1C(=O)OC(C)(C)C)=Nc1cc(CCCCCCCCCCCC)ccc1S3)S2` [Compound 1d], the solubility reads like this: under setting [1], > 10000 µg/mL; under setting [2], > 10000 µg/mL; under setting [3], > 10000 µg/mL; under setting [4], > 10000 µg/mL.

Turning to `c1ccc2c(c1)N=c1[nH]c3c(c1S2)Sc1ccccc1N=3` [Compound 2a, reference compound], the solubility reads like this: under setting [1], < 1000 µg/mL; under setting [2], < 1000 µg/mL; under setting [3], < 1000 µg/mL; under setting [4], < 1000 µg/mL.
